According to US11760754B2, “Heterocyclic mitochondrial activity inhibitors and uses thereof” (UNIVERSITÉ DE MONTRÉAL, priority 2017, dated 2023):

What was measured:
OCI-AML3 cells = experiment: OCI-AML3 cell growth inhibition, dose-response viability assay (CellTiterGlo); assay type: cell-based; conditions: Homo sapiens, OCI-AML-3, 144 h, read-out: AML-3 EC50
In short: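 OCI-AML3 cells seeded, then exposed to compound in serial dilutions from 10 μM to 0.5 nM, in duplicate or quadruplicate. Viability read by CellTiter-Glo.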

MLL-AF9 cells = experiment: MLL-AF9 leukemia cell growth inhibition, dose-response viability assay (CellTiterGlo); assay type: cell-based, murine; conditions: Mus musculus, MLL-AF9, 120 h, read-out: MLL-AF9 EC50
In short: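 Murine MLL-AF9 leukemia cells (female, MSCV MLL-AF9 IRES Puro transduced) were treated with serial compound dilutions from 10 μM to 0.5 nM in duplicates or quadruplicates. Viability read by CellTiterGlo dose-response.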

| EC50 (OCI-AML3 cells) [nM] | EC50 (MLL-AF9 cells) [nM] | Compound |
| --- | --- | --- |
| 1000 to 10000 | 1000 to 10000 | CC(C)(C)OC(=O)NCCCCc1ccc(OCc2coc(/C=C/c3ccc(C(F)(F)F)cc3)n2)cc1 [Compound 79, (E)-tert-butyl (4-(4-((2-(4-(trifluoromethyl)styryl)oxazol-4-yl)methoxy)phenyl)butyl) carbamate] |
| 500 to 1000 | 100 to 500 | C(=C\c1nc(COc2ccc(CCCCn3ccnn3)cc2)co1)/c1ccncc1 [Compound 80, (E)-4-((4-(4-(1H-1,2,3-triazol-1-yl)butyl)phenoxy)methyl)-2-(2-(pyridin-4-yl)vinyl) oxazole] |
| 50 to 100 | 50 to 100 | Fc1cnccc1/C=C/c1nc(COc2ccc(CCCCn3ccnn3)cc2)co1 [Compound 81, (E)-4-((4-(4-(1H-1,2,3-triazol-1-yl)butyl)phenoxy)methyl)-2-(2-(3-fluoropyridin-4-yl)vinyl)oxazole] |
| 100 to 500 | 100 to 500 | C(=C\c1nc(COc2ccc(CCCCn3ccnn3)cc2)co1)/c1cccnc1 [Compound 82, (E)-4-((4-(4-(1H-1,2,3-triazol-1-yl)butyl)phenoxy)methyl)-2-(2-(pyridin-3-yl)vinyl)oxazole] |
| 500 to 1000 | 100 to 500 | Fc1ncccc1/C=C/c1nc(COc2ccc(CCCCn3ccnn3)cc2)co1 [Compound 83, (E)-4-((4-(4-(1H-1,2,3-triazol-1-yl)butyl)phenoxy)methyl)-2-(2-(2-fluoropyridin-3-yl)vinyl)oxazole] |
| 1000 to 10000 | 1000 to 10000 | C(=C\c1nc(COc2ccc(CCCCn3ccnn3)cc2)co1)/c1ccccn1 [Compound 84, (E)-4-((4-(4-(1H-1,2,3-triazol-1-yl)butyl)phenoxy)methyl)-2-(2-(pyridin-2-yl)vinyl)oxazole] |
| 1000 to 10000 | 1000 to 10000 | Fc1cccnc1/C=C/c1nc(COc2ccc(CCCCn3ccnn3)cc2)co1 [Compound 85, (E)-4-((4-(4-(1H-1,2,3-triazol-1-yl)butyl)phenoxy)methyl)-2-(2-(3-fluoropyridin-2-yl)vinyl)oxazole] |
| 1000 to 10000 | 100 to 500 | O=C(CCO)NCCCCc1ccc(OCc2coc(/C=C/c3ccc(C(F)(F)F)cc3)n2)cc1 [Compound 86, (E)-3-hydroxy-N-(4-(4-((2-(4-(trifluoromethyl)styryl)oxazol-4-yl)methoxy)phenyl)butyl) propanamide] |
| 500 to 1000 | 100 to 500 | CN(C)C(=O)OCCC(=O)NCCCCc1ccc(OCc2coc(/C=C/c3ccc(C(F)(F)F)cc3)n2)cc1 [Compound 87, (E)-3-oxo-3-((4-(4-((2-(4-(trifluoromethyl)styryl)oxazol-4-yl)methoxy)phenyl)butyl)amino)propyl dimethylcarbamate] |
| 1000 to 10000 | 500 to 1000 | Fc1cc(C(F)(F)F)ccc1/C=C/c1nc(COc2ccc(CCCCn3cncn3)cc2)co1 [Compound 88] |
| 1000 to 10000 | 1000 to 10000 | FC(F)(F)c1ccc(/C=C/c2nc(COc3ccc(CCCCn4cncn4)cc3)co2)c(Oc2ccc(CCCCn3cncn3)cc2)c1 [Compound 89, (E)-2-(2-(4-(4-(1H-1,2,4-triazol-1-yl)butyl)phenoxy)-4-(trifluoromethyl)styryl)-4-((4-(4-(1H-1,2,4-triazol-1-yl)butyl)phenoxy)methyl)oxazole] |
| 1000 to 10000 | 100 to 500 | Fc1cc(C(F)(F)F)ccc1/C=C/c1nc(COc2ccc(CCCCn3cnnn3)cc2)co1 [Compound 90, (E)-4-((4-(4-(1H-tetrazol-1-yl)butyl)phenoxy)methyl)-2-(2-fluoro-4-(trifluoromethyl)styryl) oxazole] |
| 1000 to 10000 | 500 to 1000 | Fc1cc(C(F)(F)F)ccc1/C=C/c1nc(COc2ccc(CCCCn3cccn3)cc2)co1 [Compound 91, (E)-4-((4-(4-(1H-pyrazol-1-yl)butyl)phenoxy)methyl)-2-(2-fluoro-4-(trifluoromethyl)styryl) oxazole] |
| 500 to 1000 | 100 to 500 | Cc1cn(CCCCc2ccc(OCc3coc(/C=C/c4ccc(C(F)(F)F)cc4F)n3)cc2)nn1 [Compound 92, (E)-2-(2-fluoro-4-(trifluoromethyl)styryl)-4-((4-(4-(4-methyl-1H-1,2,3-triazol-1-yl)butyl)phenoxy)methyl) oxazole] |
| 1000 to 10000 | 500 to 1000 | Cc1ncn(CCCCc2ccc(OCc3coc(/C=C/c4ccc(C(F)(F)F)cc4F)n3)cc2)n1 [Compound 93, (E)-2-(2-fluoro-4-(trifluoromethyl)styryl)-4-((4-(4-(3-methyl-1H-1,2,4-triazol-1-yl)butyl)phenoxy)methyl)oxazole] |
| 1000 to 10000 | 1000 to 10000 | Cc1nnn(CCCCc2ccc(OCc3coc(/C=C/c4ccc(C(F)(F)F)cc4F)n3)cc2)n1 [Compound 94, (E)-2-(2-fluoro-4-(trifluoromethyl)styryl)-4-((4-(4-(5-methyl-2H-tetrazol-2-yl)butyl)phenoxy)methyl)oxazole] |

| EC50 (OCI-AML3 cells) [nM] | EC50 (MLL-AF9 cells) [nM] | Compound |
| --- | --- | --- |
| 1000 to 10000 | 100 to 500 | OCCc1cn(CCCCc2ccc(OCc3coc(/C=C/c4ccc(C(F)(F)F)cc4F)n3)cc2)nn1 [Compound 95, (E)-2-(1-(4-(4-((2-(2-fluoro-4-(trifluoromethyl)styryl)oxazol-4-yl)methoxy)phenyl)butyl)-1H-1,2,3-triazol-4-yl)ethanol] |
| 500 to 1000 | 100 to 500 | COCCNC(=O)OCCc1cn(CCCCc2ccc(OCc3coc(/C=C/c4ccc(C(F)(F)F)cc4F)n3)cc2)nn1 [Compound 96, (E)-2-(1-(4-(4-((2-(2-fluoro-4-(trifluoromethyl)styryl)oxazol-4-yl)methoxy)phenyl)butyl)-1H-1,2,3-triazol-4-yl)ethyl (2-methoxyethyl)carbamate] |
| 100 to 500 | 100 to 500 | O=C(NC1CCCC1)OCCc1cn(CCCCc2ccc(OCc3coc(/C=C/c4ccc(C(F)(F)F)cc4F)n3)cc2)nn1 [Compound 97, (E)-2-(1-(4-(4-((2-(2-fluoro-4-(trifluoromethyl)styryl)oxazol-4-yl)methoxy)phenyl)butyl)-1H-1,2,3-triazol-4-yl)ethyl cyclopentylcarbamate] |
| 100 to 500 | 50 to 100 | CC(C)NC(=O)OCCc1cn(CCCCc2ccc(OCc3coc(/C=C/c4ccc(C(F)(F)F)cc4F)n3)cc2)nn1 [Compound 98, (E)-2-(1-(4-(4-((2-(2-fluoro-4-(trifluoromethyl)styryl)oxazol-4-yl)methoxy)phenyl)butyl)-1H-1,2,3-triazol-4-yl)ethyl isopropylcarbamate] |
| 100 to 500 | 100 to 500 | O=[N+]([O-])c1ccc(/C=C/c2nc(COc3ccc(CCCCn4ccnc4)cc3)co2)c(F)c1 [Compound 99, (E)-4-((4-(4-(1H-imidazol-1-yl)butyl)phenoxy)methyl)-2-(2-fluoro-4-nitrostyryl)oxazole] |
| 500 to 1000 | 500 to 1000 | Fc1cc(C(F)(F)F)ccc1/C=C/c1nc(COc2ccc(CCCCn3ccnc3)cc2)co1 [Compound 100, (E)-4-((4-(4-(1H-imidazol-1-yl)butyl)phenoxy)methyl)-2-(2-fluoro-4-(trifluoromethyl)styryl)oxazole] |
| 1000 to 10000 | 1000 to 10000 | O=[N+]([O-])c1ccc(/C=C/c2nc(COc3ccc(CCCCn4ccnn4)cc3)co2)c(Oc2ccc(CCCCn3ccnn3)cc2)c1 [Compound 101, (E)-2-(2-(4-(4-(1H-1,2,3-triazol-1-yl)butyl)phenoxy)-4-nitrostyryl)-4-((4-(4-(1H-1,2,3-triazol-1-yl)butyl)phenoxy)methyl)oxazole] |
| 100 to 500 | 100 to 500 | Fc1cc(C(F)(F)F)ccc1/C=C/c1nc(COc2ccc(CCCCc3cccnc3)cc2)co1 [Compound 102, (E)-2-(2-fluoro-4-(trifluoromethyl)styryl)-4-((4-(4-(pyridin-3-yl)butyl)phenoxy)methyl)oxazole] |
| 100 to 500 | 100 to 500 | O=[N+]([O-])c1ccc(/C=C/c2nc(COc3ccc(CCCCc4cccnc4)cc3)co2)c(F)c1 [Compound 103, (E)-2-(2-fluoro-4-nitrostyryl)-4-((4-(4-(pyridin-3-yl)butyl)phenoxy)methyl)oxazole] |
| 1000 to 10000 | 1000 to 10000 | Fc1cc(C(F)(F)F)ccc1/C=C/c1nc(COc2ccc(CCCCc3ccncc3)cc2)co1 [Compound 104, (E)-2-(2-fluoro-4-(trifluoromethyl)styryl)-4-((4-(4-(pyridin-4-yl)butyl)phenoxy)methyl)oxazole] |
| 100 to 500 | 500 to 1000 | Fc1cc(C(F)(F)F)ccc1/C=C/c1nc(COc2ccc(CCCn3ccnn3)cc2)co1 [Compound 105, (E)-4-((4-(3-(1H-1,2,3-triazol-1-yl)propyl)phenoxy)methyl)-2-(2-fluoro-4-(trifluoromethyl)styryl)oxazole] |
| 1000 to 10000 | 1000 to 10000 | FC(F)(F)c1ccc(/C=C/c2nc(COc3ccc(CCCn4ccnn4)cc3)co2)c(-n2nccn2)c1 [Compound 106, (E)-4-((4-(3-(1H-1,2,3-triazol-1-yl)propyl)phenoxy)methyl)-2-(2-(2H-1,2,3-triazol-2-yl)-4-(trifluoromethyl)styryl)oxazole] |
| 1000 to 10000 | 1000 to 10000 | Fc1cc(C(F)(F)F)ccc1/C=C/c1nc(COc2ccc(CCCCc3nccs3)cc2)co1 [Compound 107, (E)-2-(2-fluoro-4-(trifluoromethyl)styryl)-4-((4-(4-(thiazol-2-yl)butyl)phenoxy)methyl) oxazole] |
| 1000 to 10000 | 1000 to 10000 | Fc1cc(C(F)(F)F)ccc1/C=C/c1nc(COc2ccc(CCCCc3cncnc3)cc2)co1 [Compound 108, (E)-2-(2-fluoro-4-(trifluoromethyl)styryl)-4-((4-(4-(pyrimidin-5-yl)butyl)phenoxy)methyl)oxazole] |
| 500 to 1000 | 100 to 500 | Fc1cc(C(F)(F)F)ccc1/C=C/c1nc(COc2ccc(OCCCn3ccnn3)cc2)co1 [Compound 109, (E)-4-((4-(3-(1H-1,2,3-triazol-1-yl)propoxy)phenoxy)methyl)-2-(2-fluoro-4-(trifluoromethyl)styryl)oxazole] |
